Data taken from PMC5446859 (2017).

System: DNAzyme-aptamer (DNA, aptamer) TGGGTAGGGCGGGTTGGGAAAGTTGGGCACGTGTTGTCTCTCTGTGTCTCGTGCCCTTCGCTAGGCCCAC
Assay: peroxidase activity (TMB), blocker hybridization
Settings: 120 mM NaCl, 5 mM KCl, 2.5 mM MgCl2; 10 mM Tris-HCl pH 8; hemin prevents hybridization of blocker; qualitative, indirect

In the case of C=CC1=C(C)C2=Cc3c(C=C)c(C)c4[n]3[Fe]([Cl])[n]3c(c(C)c(CCC(=O)O)c3=CC3=NC(=C4)C(C)=C3CCC(=O)O)=CC1=N2, the binding is reported as “yes”.
